Assays:
Type in all cases: cell-based, human
Ikaros = experiment: Intracellular Ikaros expression in stimulated anti-CD19 CAR-expressing T cells (flow cytometry MFI)
Procedure: T cell compositions containing anti-CD19 CAR-expressing T cells were generated from leukapheresis samples from three healthy human adult donors by a process including immunoaffinity-based selection of T cells (including CD4+ and CD8+ cells) from the samples, resulting in two compositions, enriched for CD8+ and CD4+ cells, respectively. The cells were incubated in the presence of (S)-3-[4-(4-morpholin-4-ylmethyl-benzyloxy)-1-oxo-1,3-dihydro-isoindol-2-yl]-piperidine-2,6-dione (Compound A) or 3-(5-amino-2-methyl-4-oxo-4H-quinazolin-3-yl)-piperidine-2,6-dione (Compound B), and expression of the transcription factors Ikaros and Aiolos was assessed. Cells of the enriched CD4+ and CD8+ compositions were separately activated with anti-CD3/anti-CD28 beads and subjected to lentiviral transduction with a vector encoding an anti-CD19 CAR. The anti-CD19 CAR contained an anti-CD19 scFv derived from a murine antibody (variable region derived from FMC63), an immunoglobulin-derived spacer, a transmembrane domain derived from CD28, a costimulatory region derived from 4-1BB, and a CD3-zeta intracellular signaling domain. The expression construct in the viral vector further contained sequences encoding a truncated receptor, which served as a surrogate marker for CAR expression, which was separated from the CAR sequence by a T2A ribosome skip sequence. Transduced populations then were separately incubated in the presence of stimulating reagents for cell expansion. Expanded CD8+ and CD4+ cells were formulated and cryopreserved separately and stored. The cryopreserved CD4+ and CD8+ anti-CD19 CAR-expressing cells from each donor were thawed, and combined at approximately a 1:1 CAR+CD4+:CD8+ ratio prior to use. Approximately 2.5×10^5 cells of the generated CAR+ T cell composition were stimulated overnight with 1 μg/ml of a CAR-specific anti-idiotypic antibody in the presence of 3-(5-amino-2-methyl-4-oxo-4H-quinazolin-3-yl)-piperidine-2,6-dione (Compound B) or (S)-3-[4-(4-morpholin-4-ylmethyl-benzyloxy)-1-oxo-1,3-dihydro-isoindol-2-yl]-piperidine-2,6-dione (Compound A) at concentrations ranging from 10 to 10000 nM or a vehicle control overnight at 37° C., 5% C02. Following overnight incubation, anti-CD19 CAR-expressing T cells were stained with antibodies and analyzed by flow cytometry to assess intracellular levels of Ikaros and Aiolos in CD4+ CAR+ or CD8+ CAR+ cells, as measured by median fluorescence intensity (MFI). Median fluorescence intensity (MFI) values for Ikaros and Aiolos were normalized and calculated as a percentage relative to vehicle control. […] The EC50 for reducing Aiolos and Ikaros expression was calculated as determined from the concentration of the inhibitor that reduced Aiolos or Ikaros MFI to 50% of its maximal MFI in the absence of the inhibitor.

[1] = system: K562.CD19, Raji, Granta-519 cells; experiment: Cytolytic activity of chronically stimulated CAR T cells with rescue treatment, CD19+ tumor cells; settings: 0.001 μM or 0.01 μM, E:T 1:1, vs control
Procedure: Anti-CD19 CAR-expressing T cells from three donors, produced as described in Example 1, were stimulated under conditions to induce chronic stimulation (to produce hypofunctional, exhausted T cells) and then were subsequently treated (rescue) with (S)-3-[4-(4-morpholin-4-ylmethyl-benzyloxy)-1-oxo-1,3-dihydro-isoindol-2-yl]-piperidine-2,6-dione (Compound A), or a vehicle control. Long-term, chronic stimulation was carried out by stimulation of CAR T cells with 30 μg/mL plate-bound anti-idiotypic (anti-ID) antibody for 6 days, substantially as described in Example 3 but in the absence of Compound A. After the chronic stimulation, the CAR-T cells were rechallenged with CD19-expressing target cells in the presence of Compound A, and cytolytic activity or cytokine production was assessed.
CAR T cells that had been stimulated for 6 days with anti-ID were co-cultured with CD19+ tumor cells at an effector to target (E:T) ratio of 1:1, in the presence of Compound A (0.001 μM or 0.01 μM). The assessed CD19+ tumor cells included K562 cells transduced with CD19 (K562.CD19), Raji cells or Granta-519 cells.

RL CD19+ tumor cells = experiment: Acute cytolytic activity, anti-CD19 CAR T cells co-cultured with RL CD19+ tumor cells
Procedure: Anti-CD19 CAR T cells were co-cultured with RL CD19+ tumor cells at an effector to target (E:T) ratio of 1:1, in the presence of (S)-3-[4-(4-morpholin-4-ylmethyl-benzyloxy)-1-oxo-1,3-dihydro-isoindol-2-yl]-piperidine-2,6-dione (Compound A) (0.001 μM, 0.01 μM or 0.1 μM). Acute cytolytic activity was measured by tumor cell number over time. […] Co-culture of CAR T cells with RL resistant tumor cells in the presence of Compound A improved cytolytic CAR T cell function, […]

RL tumor spheroids = experiment: RL tumor spheroid model with anti-CD19 CAR T cells; settings: Day 4; 1 μM Compound B, 0.01 μM or 0.1 μM Compound A
Procedure: Cytolytic activity was also assessed in a spheroid model. About 5,000 RL cells were plated 48 hours prior to addition of 5,000 anti-CD19 CAR T cells (1:1 E:T ratio). Anti-CD19 CAR T cells were co-cultured with RL tumor spheroids, in the presence of Compound B (1 μM) or Compound A (0.001 μM, 0.01 μM or 0.1 μM)).

RL cells = experiment: Rescue of chronically stimulated CAR T cells cultured with RL cells; settings: Compound B 1 μM, Compound A 0.001, 0.01 or 0.1 μM
Procedure: The RL cells were further used to assess the ability of immunomodulatory compounds to rescue or reverse the anti-CD19 CAR T cells from exhaustion. Anti-CD19 CAR-expressing T cells were stimulated under conditions to induce chronic stimulation and then were subsequently treated (rescue) with Compound B (1 μM) or Compound A (0.001 μM, 0.01 μM or 0.1 μM), or a vehicle control. Long-term, chronic stimulation was carried out by stimulation of CAR T cells with 30 μg/mL plate-bound anti-idiotypic (anti-ID) antibody for 6 days, substantially as described in Example 3. After the chronic stimulation, the CAR-T cells were cultured with RL cells in the presence of Compound B or Compound A. Cytolytic activity was assessed over time by measuring tumor cell number in the culture.

anti-CD19 CAR T cells = experiment: Proliferation and cell cycle of acutely stimulated anti-CD19 CAR T cells
Procedure: Cell cycle and proliferation of anti-CD19 CAR T cells was measured by labeling cells using the Click-iT™ EdU Cell Proliferation Kit after which the prepared cells were analyzed by flow cytometry for DNA content. Numbers of anti-CD19 CAR T cells were measured over time using an IncuCyte® Live-Cell Analysis System.
As shown, treatment with Compound A reduced the proliferation of anti-CD19 CAR T cells. To further assess the effects on reducing proliferation, cell cycle was measured by flow cytometry by analyzing DNA content. FIG. 7D depicts plots of the percentage of cells in G1 phase (mean±SEM from data pooled from 3 donors and 2 independent experiments).

- EC50 (Ikaros; overnight incubation, 1 μg/ml anti-idiotypic antibody, average of donors (range, 95% confidence interval)): 4 nM
SMILES: O=C1CC[C@H](N2Cc3c(OCc4ccc(CN5CCOCC5)cc4)cccc3C2=O)C(=O)N1 [Compound A, (S)-3-[4-(4-morpholin-4-ylmethyl-benzyloxy)-1-oxo-1,3-dihydro-isoindol-2-yl]-piperidine-2,6-dione]
- intracellular Ikaros expression (Ikaros; 10 to 10000 nM, overnight): concentration dependent decrease
- cytolytic activity (tumor cell number over time) [1]: statistically significant improvement
- sensitivity of RL tumor cell line to monotherapy (RL CD19+ tumor cells; 0.01 μM or 0.1 μM): sensitive
- cytolytic CAR T cell function against RL tumor cells (RL CD19+ tumor cells; co-culture, E:T 1:1, 0.001, 0.01 or 0.1 μM): improved
- sensitivity of RL tumor spheroids to compound (RL tumor spheroids): sensitive
- CAR T cell cytolytic activity, RL cell growth (RL cells): substantially improved
- proliferation of anti-CD19 CAR T cells (anti-CD19 CAR T cells; 1 nM, 10 nM or 100 nM): reduced
- percentage of cells in the G1 phase (anti-CD19 CAR T cells; 3 days treatment): statistically significant increase

Source: patent US20220401483A1, “COMBINATION OF A T CELL THERAPY AND (S)-3-[4-(4-MORPHOLIN-4-YLMETHYL-BENZYLOXY)-L-OXO-L,3-DIHYDRO-ISOINDOL-2-YL]-PIPERIDINE-2,6-DIONE” (Juno Therapeutics, Inc., priority 2019, published 2022)
